According to publication PMC5819316, “Structural and Biochemical Characterization of BdsA from Bacillus subtilis WU-S2B, a Key Enzyme in the “4S” Desulfurization Pathway” (Frontiers in Microbiology, 2018):

B1: DBT sulfone monooxygenase BdsA from Bacillus subtilis WU-S2B (enzyme)
chain: MAEQRQLHLAGFFSAGNVTHAHGAWRHVGATNGFLTGEFYKQIARTLERGKFDLLFLPDGLAIEDSYGDNLETGVGLGGQGAVALEPTSVIATMAAVTQRLGLGATVSTTYYPPYHVARVFATLDNLSDGRISWNVVTSLNDSEARNFGVDEHLEHDIRYDRADEFLEAVKKLWSSWSEDALLLDKVGGRFADPKKVQYVNHRGRWLSVRGPLQVPRSRQGEPVILQAGLSPRGRRFAGRWAEAVFSVSPNLDIMRAVYQDIKAHVAAAGRDPEQTKVFTAVMPVLGETEQVARERLEYLNSLVHPEVGLSTLSSHSGLNLSKYPLDTKFSDIVADLGDRHVPTMLQMFSAVAGGGADLTLAELGRRYGTNVGFVPQWAGTAEQIADQLISHFEAGAADGFIISPAYLPGIYEEFVDQVVPLLQQRGVFRTEYEGTTLREHLGLAHPEVGSIR
notes: BdsA (DBT sulfone monooxygenase), Bacillus subtilis WU-S2B; synthesized bdsA gene cloned into the NdeI and XhoI sites of pET-15b; each monomer is composed of 453 amino acids; in the crystal the N-terminus to Gln4 and Ser451 to the C-terminus are not visible; No removal of the His-tag is described; also called apo-BdsA; dibenzothiophene sulfone monooxygenase; source: E. coli BL21 (DE3), purified …

Legend:
BdsA = target: T1, BdsA (Bacillus subtilis, UniProt Q8GRC7); experiment: X-ray crystallography, […] A, crystal soaking; type: binding; conditions: crystals soaked in 1 mM FMN for 30 min, pH 5.5; one FMN per subunit, active site
T1 construct: monomer 453 residues; homotetramer, ~220 kDa by gel filtration

[1] = target: the molecule itself; experiment: SEC; Superdex-200 gel filtration in 10 mM Tris-HCl (pH 8.0), 100 mM NaCl; oligomeric state in solution from the elution volume (~220 kDa)

Molecule	X-ray crystallography, 2.4 A, crystal soaking (BdsA)	stoichiometry N [1]
Cc1cc2nc3c(=O)[nH]c(=O)nc-3n(C[C@H](O)[C@H](O)[C@H](O)COP(=O)(O)O)c2cc1C [FMN]	The structure of the tetrameric BdsA–FMN complex contains four FMN molecules	
B1		4
